This experiment concerns KMS.12.BM cells. Briefly: KMS.12.BM cell viability assay. The experiment is classed as cell-based. Conditions: 72 h; KMS.12.BM human myeloma cells, 3 days, Cell Titer-GLO ATP quantitation; read-out: KMS cellular IC50. In outline: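 Human myeloma KMS.12.BM cells, 5000 per well in RPMI/10% FBS, exposed 3 days to compound concentration range. Viability from ATP-based Cell Titer-GLO luminescence; IC50 derived.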
For orientation: ATP-based viability assays read luminescence as a measure of living cells.

The IC50 is the concentration needed to halve the response being measured. In the case of `Cc1cc2c(cc(NCCN(C)C)c3nnc(C)n32)n1Cc1ccccc1` [Example 246, N1-(6-Benzyl-1,7-dimethyl-6H-pyrrolo[2,3-e][1,2,4]triazolo[4,3-a]pyridin-4-yl)-N2,N2-dimethylethane-1,2-diamine], the concentration for half-maximal inhibition (IC50) is at most 1000 nM.

For the molecule `Cc1cc2c(cc(N[C@H]3C[C@H](O)C3)c3nnc(C)n32)n1Cc1ccccc1` [Example 247, trans-3-(6-Benzyl-1,7-dimethyl-6H-pyrrolo[2,3-e][1,2,4]triazolo[4,3-a]pyridin-4-ylamino)cyclobutanol], the IC50 was at most 1000 nM. In the case of `Cc1cc2c(cc(NC(=O)OC(C)(C)C)c3nnc(C)n32)n1Cc1ccccc1` [Example 248, tert-Butyl 6-benzyl-1,7-dimethyl-6H-pyrrolo[2,3-e][1,2,4]triazolo[4,3-a]pyridin-4-ylcarbamate], the IC50 was at most 1000 nM. `CCNC(=O)Nc1cc2c(cc(C)n2Cc2ccccc2)n2c(C)nnc12` [Example 249, 1-(6-Benzyl-1,7-dimethyl-6H-pyrrolo[2,3-e][1,2,4]triazolo[4,3-a]pyridin-4-yl)-3-ethylurea]: the IC50 was at most 1000 nM. In the case of `Cc1cc2c(cc(NC(=O)NC(C)C)c3nnc(C)n32)n1Cc1ccccc1` [Example 250, 1-(6-Benzyl-1,7-dimethyl-6H-pyrrolo[2,3-e][1,2,4]triazolo[4,3-a]pyridin-4-yl)-3-isopropylurea], the IC50 is at most 1000 nM. `Cc1cc2c(cc(NC(=O)N(C)C)c3nnc(C)n32)n1Cc1ccccc1` [Example 251, 3-(6-Benzyl-1,7-dimethyl-6H-pyrrolo[2,3-e][1,2,4]triazolo[4,3-a]pyridin-4-yl)-1,1-dimethylurea]: the IC50 is at most 1000 nM.

Regarding `Cc1cc2c(cc(NC(N)=O)c3nnc(C)n32)n1Cc1ccccc1` [Example 252, 1-(6-Benzyl-1,7-dimethyl-6H-pyrrolo[2,3-e][1,2,4]triazolo[4,3-a]pyridin-4-yl)urea], the 50% inhibitory concentration (IC50) is at most 1000 nM. The figure for `Cc1cc2c(cc(Nc3ncc[nH]3)c3nnc(C)n32)n1Cc1ccccc1` [Example 253, 6-Benzyl-N-(1H-imidazol-2-yl)-1,7-dimethyl-6H-pyrrolo[2,3-e][1,2,4]triazolo[4,3-a]pyridin-4-amine] is at most 1000 nM. The figure for `Cc1cc2c(cc(NC(N)=O)c3nnc(C)n32)n1Cc1c(F)cccc1F` [Example 254, 1-(6-(2,6-Difluorobenzyl)-1,7-dimethyl-6H-pyrrolo[2,3-e][1,2,4]triazolo[4,3-a]pyridin-4-yl)urea] is at most 1000 nM; for `Cc1cc2c(cc(Nc3ccncc3)c3nnc(C)n32)n1Cc1ccccc1` [Example 255, 6-Benzyl-1,7-dimethyl-N-(pyridin-4-yl)-6H-pyrrolo[2,3-e][1,2,4]triazolo[4,3-a]pyridin-4-amine] it is at most 1000 nM. The figure for `Cc1cc2c(cc(Nc3cccnc3)c3nnc(C)n32)n1Cc1ccccc1` [Example 256, 6-Benzyl-1,7-dimethyl-N-(pyridin-3-yl)-6H-pyrrolo[2,3-e][1,2,4]triazolo[4,3-a]pyridin-4-amine] is at most 1000 nM; for `Cc1cc2c(cc(NCCCN)c3nnc(C)n32)n1Cc1ccccc1` [Example 257, N1-(6-Benzyl-1,7-dimethyl-6H-pyrrolo[2,3-e][1,2,4]triazolo[4,3-a]pyridin-4-yl)propane-1,3-diamine] it is at most 1000 nM; for `Cc1cc2c(cc(NCCN)c3nnc(C)n32)n1Cc1ccccc1` [Example 258, N1-(6-benzyl-1,7-dimethyl-6H-pyrrolo[2,3-e][1,2,4]triazolo[4,3-a]pyridin-4-yl)ethane-1,2-diamine] it is at most 1000 nM. For `CCNc1cc2c(cc(C)n2Cc2ccccc2)n2c(C)nnc12` [Example 259, 6-Benzyl-N-ethyl-1,7-dimethyl-6H-pyrrolo[2,3-e][1,2,4]triazolo[4,3-a]pyridin-4-amine], the IC50 was at most 1000 nM. To `Cc1cc2c(cc(Nc3ccccc3)c3nnc(C)n32)n1Cc1ccccc1` [Example 260, 6-Benzyl-1,7-dimethyl-N-phenyl-6H-pyrrolo[2,3-e][1,2,4]triazolo[4,3-a]pyridin-4-amine] belongs 1000 to 10000 nM. To `CNc1cc2c(cc(C)n2Cc2ccccc2)n2c(C)nnc12` [Example 261, 6-Benzyl-N,1,7-trimethyl-6H-pyrrolo[2,3-e][1,2,4]triazolo[4,3-a]pyridin-4-amine] belongs at most 1000 nM; to `CCCNc1cc2c(cc(C)n2Cc2ccccc2)n2c(C)nnc12` [Example 262, 6-Benzyl-N-propyl-1,7-dimethyl-6H-pyrrolo[2,3-e][1,2,4]triazolo[4,3-a]pyridin-4-amine], 1000 to 10000 nM; to `Cc1cc2c(cc(NC(C)C)c3nnc(C)n32)n1Cc1ccccc1` [Example 263, 6-Benzyl-N-isopropyl-1,7-dimethyl-6H-pyrrolo[2,3-e][1,2,4]triazolo[4,3-a]pyridin-4-amine], 1000 to 10000 nM. The figure for `CC(=O)Nc1cc2c(cc(C)n2Cc2ccccc2)n2c(C)nnc12` [Example 266, N-(6-Benzyl-1,7-dimethyl-6H-pyrrolo[2,3-e][1,2,4]triazolo[4,3-a]pyridin-4-yl)acetamide] is at most 1000 nM.

For the molecule `CCCC(=O)Nc1cc2c(cc(C)n2Cc2ccccc2)n2c(C)nnc12` [Example 267, N-(6-Benzyl-1,7-dimethyl-6H-pyrrolo[2,3-e][1,2,4]triazolo[4,3-a]pyridin-4-yl)butyramide], the half-maximal inhibitory concentration (IC50) is at most 1000 nM. Take `CCC(=O)Nc1cc2c(cc(C)n2Cc2ccccc2)n2c(C)nnc12` [Example 268, N-(6-Benzyl-1,7-dimethyl-6H-pyrrolo[2,3-e][1,2,4]triazolo[4,3-a]pyridin-4-yl)propionamide]: the IC50 is at most 1000 nM. As for `Cc1cc2c(cc(NC(=O)C3CC3)c3nnc(C)n32)n1Cc1ccccc1` [Example 269, N-(6-Benzyl-1,7-dimethyl-6H-pyrrolo[2,3-e][1,2,4]triazolo[4,3-a]pyridin-4-yl)cyclopropanecarboxamide], the IC50 is at most 1000 nM.

With `Cc1cc2c(cc(NC(=O)C(C)C)c3nnc(C)n32)n1Cc1ccccc1` [Example 270, N-(6-Benzyl-1,7-dimethyl-6H-pyrrolo[2,3-e][1,2,4]triazolo[4,3-a]pyridin-4-yl)isobutyramide], the 50% inhibitory concentration (IC50) is at most 1000 nM. The figure for `Cc1cc2c(cc(NS(C)(=O)=O)c3nnc(C)n32)n1Cc1ccccc1` [Example 271, N-(6-Benzyl-1,7-dimethyl-6H-pyrrolo[2,3-e][1,2,4]triazolo[4,3-a]pyridin-4-yl)methanesulfonamide] is at most 1000 nM; for `COC(=O)Nc1cc2c(cc(C)n2Cc2ccccc2)n2c(C)nnc12` [Example 272, Methyl 6-benzyl-1,7-dimethyl-6H-pyrrolo[2,3-e][1,2,4]triazolo[4,3-a]pyridin-4-ylcarbamate] it is at most 1000 nM.

The values are drawn from patent US10442803B2, “Tricyclic heterocycles as bet protein inhibitors” (Incyte Corporation, priority 2013, dated 2019).
